Source: patent US7741521B2, “Inhibition of bid-induced cell-death using small organic molecules” (The Burnham Institute, priority 2004, dated 2010)

How the values were obtained:
tBID = target: T1, tBID (Mus musculus, UniProt P70444); assay: tBID association with isolated mitochondria (immunoblot with BID antibody); format: biochemical; conditions: at 20 μM
T1 construct: tBID was produced by cleavage of purified BID with caspase-8, as known in the art; made in house; host or cells: E. coli BL21 (BID), then cleaved in vitro with caspase-8
T1 sequence (P70444 60-195 limits assumed): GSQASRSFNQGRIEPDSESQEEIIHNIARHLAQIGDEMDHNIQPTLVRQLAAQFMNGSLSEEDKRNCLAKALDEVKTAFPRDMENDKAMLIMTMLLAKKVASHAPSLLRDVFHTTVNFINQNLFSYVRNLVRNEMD
T1 sequence (P70444 1-59 partner limits assumed): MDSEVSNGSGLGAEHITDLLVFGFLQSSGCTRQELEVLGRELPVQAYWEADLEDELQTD
Experimental: Compounds II-IX were tested in vitro for their ability to inhibit BID-mediated release of Smac using mitochondria isolated from HeLa cells (FIG. 6A). The first lane represents mitochondria incubated without tBID. All others received 100 ng tBID without or with compounds. Each compound was tested at a concentration of 50 μM. […] To preliminarily investigate the mechanism by which compound II reduces Smac-release from isolated mitochondria, the tBID protein was treated with different concentrations of BI-6C9, after which it was incubated with mitochondria, followed by analysis of the bound and unbound fractions by immunoblotting using BID antibody. The concentration of mitochondria-bound tBID diminished in response to increasing concentrations of compound II.

caspase-8 = caspase-8 (Homo sapiens, UniProt Q14790); assay: Caspase-8 mediated BID cleavage (SDS page); format: biochemical; conditions: concentrations used in the cellular assay
[1] = tested on: primary hippocampal neurons; assay: Glutamate-induced cell death in primary hippocampal neurons; format: cell-based
Experimental: Primary cultures were obtained from embryonic day 18 rats and cultured in Neurobasal medium (Invitrogen, Karlsruhe, Germany) supplemented with 5 mM HEPES, 1.2 mM glutamine, B27 supplement (Invitrogen, 20 ml/l) and gentamicin (0.1 mg/ml) as described in the art. Glutamate (20 μM) was added in 9-10 day old cultures in EBSS medium (6800 mg/L NaCl, 400 mg/L KCl, 264 mg/L CaCl2×2H2O, 200 mg/L MgCl2×7H2O, 2200 mg/L NaHCO3, 140 mg/L NaH2PO4×H2O, 10 mM glucose, pH 7.2).
Neuronal cell death was quantified after staining the nuclei with the DNA-binding fluorochrome Hoechst 33258 (Molecular Probes) or by the MTT assay. Immunocytochemistry was performed as described in the art, with a polyclonal anti-AIF antibody (sc-9416, Santa Cruz; 1:200) followed by incubation a biotinylated anti-goat IgG antibody (1:200) Vector Laboratories) and Oregon Green-streptavidin (Molecular Probes). […]
To assess whether the compounds of the present invention would also prevent neuronal cell death in primary cultures, a number of cell-based assays were performed. […] Twenty-four hours later, apoptotic nuclei were quantified after staining with Hoechst 33342. In a separate experiment (FIG. 11C), the protective effect of Compound I against glutamate-induced cell death was quantified by the MTT assay. […]

caspase-8, sequence (Q14790 217-374 limits assumed, species assumed): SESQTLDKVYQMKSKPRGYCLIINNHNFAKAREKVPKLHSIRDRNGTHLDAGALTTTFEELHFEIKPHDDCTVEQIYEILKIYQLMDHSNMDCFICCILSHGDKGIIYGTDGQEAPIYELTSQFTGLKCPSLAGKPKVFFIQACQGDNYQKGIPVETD
caspase-8, sequence (Q14790 385-479 limits assumed, species assumed): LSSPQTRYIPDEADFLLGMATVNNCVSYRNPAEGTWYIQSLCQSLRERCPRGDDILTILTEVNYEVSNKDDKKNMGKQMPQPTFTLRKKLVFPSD

Structure (SMILES) | inhibition of tBID association with isolated mitochondria (tBID) | effect on caspase-8 mediated BID cleavage (caspase-8) | concentration range of dose-dependent neuroprotective effect ([1]; 1 hour pretreatment, glutamate 20 μM, 24 hours, Hoechst 33342 apoptotic nuclei) [µM] | toxicity to primary hippocampal neurons ([1]; at higher concentrations (20 μM))
COc1ccc(S(=O)(=O)NCCCC(=O)Nc2ccc(Sc3ccc(N)cc3)cc2)cc1 [Compound II, N-[4-(4-amino-phenylsulfanyl)-phenyl]-4-(4-methoxy-benzenesulfonylamino)-butyramide] | effective | does not impair | – | –
Nc1ccc(Sc2ccc(NC(=O)CNC(=O)c3ccc(O)cc3O)cc2)cc1 [Compound I, N-((4-(4-aminophenylthio)phenylcarbamoyl)methyl)-2,4-dihydroxybenzamide] | – | – | 0.2 to 2 | some toxicity
